US8394967B2, “Antioxidant inflammation modulators: C-17 homologated oleanolic acid derivatives” (Reata Pharmaceuticals, Inc., priority 2008, dated 2013)
pIC50: −log10 of the molar value. Read-outs that look alike come from different tables or passages of the source.

Columns and labels:
RAW264.7 macrophages = experiment: Cell viability of RAW264.7 macrophages (WST-1 reagent); format: cell-based, mouse; conditions: cell viability, RAW264.7, 20 ng/ml IFNγ 24 hours, WST-1 reagent, read-out: RAW264.7 (20 ng/ml IFNγ) WST-1 IC50
Procedure: (§1) FIGS. 1-4, 6 and 8. Inhibition of NO Production. RAW264.7 macrophages were pre-treated with DMSO or drugs at various concentrations (nM) for 2 hours, then treated with 20 ng/ml IFNγ for 24 hours. NO concentration in media was determined using a Griess reagent system; cell viability was determined using WST-1 reagent.
(§2) Nitric Oxide production and cell viability. RAW264.7 macrophages were pre-treated with DMSO or drugs for 2 hours, then treated with recombinant mouse IFNγ (Sigma) for 24 hours. NO concentration in media was determined using the Griess reagent system (Promega). Cell viability was determined using WST-1 reagent (Roche).

HO-1 = experiment: Nrf2 target gene induction, MDA-MB-435 (qPCR): HO-1; format: cell-based; conditions: Homo sapiens; MDA-MB-435, 250 nM, 16 hours, mRNA by qPCR
Procedure: (§3) Nrf2 target gene induction. MDA-MB-435 human melanoma cells were treated with vehicle (DMSO) or the indicated compounds and concentrations for 16 hours. HO-1, thioredoxin reductase-1 (TrxR1), γ-glutamylcysteine synthetase (γ-GCS), and ferritin heavy chain mRNA levels were quantified using qPCR and were normalized relative to a DMSO-treated sample run in parallel. Values are averages of duplicate wells. Primer sequences are as follows.

γ-GCS = experiment: Nrf2 target gene induction, MDA-MB-435 (qPCR): γ-GCS; format: cell-based; conditions: Homo sapiens; MDA-MB-435, 250 nM, 16 hours, mRNA by qPCR
Procedure: as §3

[1] = test system: NO production in RAW264.7 macrophages; experiment: Inhibition of NO production in IFNγ-treated RAW264.7 macrophages (Griess reagent); format: cell-based, mouse; conditions: then 20 ng/ml IFNγ for 24 hours
Procedure: as §1, §2

NQO1 = experiment: Nrf2 target gene induction, MDA-MB-435 (qPCR): NQO1; format: cell-based; conditions: Homo sapiens; MDA-MB-435, 250 nM, 16 hours, mRNA by qPCR
[2] = Mus musculus, RAW264.7, RAW264.7 macrophages pre-treated 2 hours

| SMILES | pIC50 [1, 2] | pIC50 ([1]; RAW264.7 macrophages pre-treated 2 hours) | pIC50 (RAW264.7 macrophages; Mus musculus, RAW264.7, 24 h) | fold induction at 0.25 µM (HO-1) | fold induction at 0.25 µM (γ-GCS) | fold induction at 0.25 µM (NQO1) | pIC50 (RAW264.7 macrophages) |
| --- | --- | --- | --- | --- | --- | --- | --- |
| CC1(C)CC[C@]2(CNCC#N)CC[C@]3(C)[C@H](C(=O)C[C@@H]4[C@@]5(C)C=C(C#N)C(=O)C(C)(C)[C@@H]5CC[C@]43C)[C@@H]2C1 [Compound 63218, (4aR,6aR,6bR,8aS,12aS,12bR,14aR,14bR)-8a-((cyanomethylamino)methyl)-4,4,6a,6b,11,11,14b-heptamethyl-3,13-dioxo-3,4,4a,5,6,6a,6b,7,8,8a,9,10,11,12,12a,12b,13,14,14a,14b-icosahydropicene-2-carbonitrile] | ~7.60 |  | < 6.70 | 3 | 10 | 3.4 |  |
| CC1(C)CC[C@]2(CNS(C)(=O)=O)CC[C@]3(C)[C@H](C(=O)CC4[C@@]5(C)C=C(C#N)C(=O)C(C)(C)C5CC[C@]43C)[C@@H]2C1 (stereo partly drawn) [Compound 63220, N-(((4aS,6aR,6bR,12aR,14aR,14bS)-11-cyano-2,2,6a,6b,9,9,12a-heptamethyl-10,14-dioxo-1,2,3,4,4a,5,6,6a,6b,7,8,8a,9,10,12a,12b,13,14,14a,14b-icosahydropicen-4a-yl)methyl)methanesulfonamide] | ~7.82 |  | < 6.70 | 3 | 6 | 2 |  |
| CC1(C)CC[C@]2([C@@H](O)CO)CC[C@]3(C)[C@H](C(=O)C[C@@H]4[C@@]5(C)C=C(C#N)C(=O)C(C)(C)[C@@H]5CC[C@]43C)[C@@H]2C1 [Compound 63221, (4aR,6aR,6bR,8aS,12aS,12bR,14aR,14bR)-8a-((R)-1,2-dihydroxyethyl)-4,4,6a,6b,11,11,14b-heptamethyl-3,13-dioxo-3,4,4a,5,6,6a,6b,7,8,8a,9,10,11,12,12a,12b,13,14,14a,14b-icosahydropicene-2-carbonitrile] | ~7.82 |  | < 6.70 | 2 | 4.5 | 2 |  |
| CC1(C)CC[C@@]23CC[C@@]4(C)[C@]5(C)CC[C@H]6C(C)(C)C(=O)C(C#N)=C[C@]6(C)[C@H]5CC(=O)[C@]4(OC2CO)[C@@H]3C1 (stereo partly drawn) [Compound 63224] | ~7.70 |  | < 6.70 | 4 | 8 | 2.5 |  |
| CC1(C)CC[C@]2(CNS(=O)(=O)CC(F)(F)F)CC[C@]3(C)[C@H](C(=O)C[C@@H]4[C@@]5(C)C=C(C#N)C(=O)C(C)(C)[C@@H]5CC[C@]43C)[C@@H]2C1 [Compound 63225, N-(((4aS,6aR,6bR,8aR,12aR,12bR,14aR,14bS)-11-cyano-2,2,6a,6b,9,9,12a-heptamethyl-10,14-dioxo-1,2,3,4,4a,5,6,6a,6b,7,8,8a,9,10,12a,12b,13,14,14a,14b-icosahydropicen-4a-yl)methyl)-2,2,2-trifluoroethanesulfonamide] | ~7.70 |  | < 6.70 | 4 | 6.5 | 2.4 |  |
| CC1(C)CC[C@]2(CNC(=O)C(F)(F)F)CC[C@]3(C)[C@H](C(=O)C[C@@H]4[C@@]5(C)C=C(C#N)C(=O)C(C)(C)[C@@H]5CC[C@]43C)[C@@H]2C1 [Compound 63226, N-(((4aS,6aR,6bR,12aR,14aR,14bS)-11-cyano-2,2,6a,6b,9,9,12a-heptamethyl-10,14-dioxo-1,2,3,4,4a,5,6,6a,6b,7,8,8a,9,10,12a,12b,13,14,14a,14b-icosahydropicen-4a-yl)methyl)-2,2,2-trifluoroacetamide] | ~7.92 |  | < 6.70 | 4 | 6 | 2 |  |
| CC1(C)CC[C@]2([C@H]3COCO3)CC[C@]3(C)[C@H](C(=O)C[C@@H]4[C@@]5(C)C=C(C#N)C(=O)C(C)(C)[C@@H]5CC[C@]43C)[C@@H]2C1 [Compound 63285, (4aR,6aR,6bR,8aS,12aS,12bR,14aR,14bR)-8a-((S)-1,3-dioxolan-4-yl)-4,4,6a,6b,11,11,14b-heptamethyl-3,13-dioxo-3,4,4a,5,6,6a,6b,7,8,8a,9,10,11,12,12a,12b, 13,14,14a,14b-icosahydropicene-2-carbonitrile] | ~7.82 |  | < 6.70 |  |  |  |  |
| C#C[C@]12CCC(C)(C)C[C@H]1[C@H]1C(=O)C[C@@H]3[C@@]4(C)C=C(C#N)C(=O)C(C)(C)[C@@H]4CC[C@@]3(C)[C@]1(C)CC2 [Compound 63303, (4aR,6aR,6bR,8aS,12aS,12bR,14aR,14bR)-8a-ethynyl-4,4,6a,6b,11,11,14b-heptamethyl-3,13-dioxo-3,4,4a,5,6,6a,6b,7,8,8a,9,10,11,12,12a,12b,13,14,14a,14b-icosahydropicene-2-carbonitrile] | ~7.74 |  | ~6.82 |  |  |  |  |

Now from value to compound, other results behind:

| pIC50 [1, 2] | pIC50 ([1]; RAW264.7 macrophages pre-treated 2 hours) | SMILES | pIC50 (RAW264.7 macrophages; Mus musculus, RAW264.7, 24 h) | fold induction at 0.25 µM (HO-1) | fold induction at 0.25 µM (γ-GCS) | fold induction at 0.25 µM (NQO1) | pIC50 (RAW264.7 macrophages) |
| --- | --- | --- | --- | --- | --- | --- | --- |
| ~7.60 |  | CC1(C)CC[C@]2(CN)CC[C@]3(C)[C@H](C(=O)C[C@@H]4[C@@]5(C)C=C(C#N)C(=O)C(C)(C)[C@@H]5CC[C@]43C)[C@@H]2C1 [Compound 63214, (6aR,6bR,8aS,12aS,12bR,14bR)-8a-(aminomethyl)-4,4,6a,6b,11,11,14b-heptamethyl-3,13-dioxo-3,4,4a,5,6,6a,6b,7,8,8a,9,10,11,12,12a,12b,13,14,14a,14b-icosahydropicene-2-carbonitrile] | < 6.70 | 2 | 3 | 1.8 |  |
| ~7.60 |  | COC[C@]12CCC(C)(C)C[C@H]1[C@H]1C(=O)C[C@@H]3[C@@]4(C)C=C(C#N)C(=O)C(C)(C)[C@@H]4CC[C@@]3(C)[C@]1(C)CC2 [Compound 63228, (4aR,6aR,6bR,8aS,12aS,12bR,14aR,14bR)-8a-(methoxymethyl)-4,4,6a,6b,11,11,14b-heptamethyl-3,13-dioxo-3,4,4a,5,6,6a,6b,7,8,8a,9,10,11,12,12a,12b,13,14,14a,14b-icosahydropicene-2-carbonitrile] | 6.70 | 2 | 4 | 2 |  |
| ~7.30 |  | CC1(C)CC[C@]2(CN3C(=O)c4ccccc4C3=O)CC[C@]3(C)[C@H](C(=O)C[C@@H]4[C@@]5(C)C=C(C#N)C(=O)C(C)(C)[C@@H]5CC[C@]43C)[C@@H]2C1 [Compound 63276, (4aR,6aR,6bR,8aS,12aS,12bR,14aR,14bR)-8a-((1,3-dioxoisoindolin-2-yl)methyl)-4,4,6a,6b,11,11,14b-heptamethyl-3,13-dioxo-3,4,4a,5,6,6a,6b,7,8,8a,9,10,11,12,12a,12b,13,14,14a,14b-icosahydropicene-2-carbonitrile] | ~6.82 |  |  |  |  |
|  | ~7.60 | CC1(C)CC[C@]2(C[S+]([O-])c3ccccc3)CC[C@]3(C)[C@H](C(=O)C[C@@H]4[C@@]5(C)C=C(C#N)C(=O)C(C)(C)[C@@H]5CC[C@]43C)[C@@H]2C1 (stereo partly drawn) [Compound 63288, (4aR,6aR,6bR,8aS,12aS,12bR,14aR,14bR)-4,4,6a,6b,11,11,14b-heptamethyl-3,13-dioxo-8a-(phenylsulfinylmethyl)-3,4,4a,5,6,6a,6b,7,8,8a,9,10,11,12,12a,12b,13,14,14a,14b-icosahydropicene-2-carbonitrile] |  |  |  |  | ~6.70 |
| ~8.05 |  | CC1(C)CC[C@]2(COC(=O)C(F)(F)F)CC[C@]3(C)[C@H](C(=O)C[C@@H]4[C@@]5(C)C=C(C#N)C(=O)C(C)(C)[C@@H]5CC[C@]43C)[C@@H]2C1 [Compound 63294, ((4aS,6aR,6bR,8aR,12aR,12bR,14aR,14bS)-11-cyano-2,2,6a,6b,9,9,12a-heptamethyl-10,14-dioxo-1,2,3,4,4a,5,6,6a,6b,7,8,8a,9,10,12a,12b,13,14,14a,14b-icosahydropicen-4a-yl)methyl 2,2,2-trifluoroacetate] | < 6.70 |  |  |  |  |
| ~7.30 |  | CC1(C)CC[C@]2(COC(=O)C(C)(C)C)CC[C@]3(C)[C@H](C(=O)C[C@@H]4[C@@]5(C)C=C(C#N)C(=O)C(C)(C)[C@@H]5CC[C@]43C)[C@@H]2C1 [Compound 63297, ((4aS,6aR,6bR,8aR,12aR,12bR,14aR,14bS)-11-cyano-2,2,6a,6b,9,9,12a-heptamethyl-10,14-dioxo-1,2,3,4,4a,5,6,6a,6b,7,8,8a,9,10,12a,12b,13,14,14a,14b-icosahydropicen-4a-yl)methyl pivalate] | ~6.70 |  |  |  |  |
| ~7.10 |  | CC1(C)CC[C@]2(COC(=O)c3ccccc3)CC[C@]3(C)[C@H](C(=O)C[C@@H]4[C@@]5(C)C=C(C#N)C(=O)C(C)(C)[C@@H]5CC[C@]43C)[C@@H]2C1 [Compound 63298, ((4aS,6aR,6bR,8aR,12aR,12bR,14aR,14bS)-11-cyano-2,2,6a,6b,9,9,12a-heptamethyl-10,14-dioxo-1,2,3,4,4a,5,6,6a,6b,7,8,8a,9,10,12a,12b,13,14,14a,14b-icosahydropicen-4a-yl)methyl benzoate] | ~6.70 |  |  |  |  |
